Test results published in US20230338397A1, “COMPOSITION COMPRISING CANNABINOIDS, AND/OR TERPENS, AND METHODS OF USING SAME” (priority 2020, published 2023).
“Also recorded” adds a separate entry of the source.

Key:
[1] = test system: human Jurkat T cell line; experiment: T cell death in Jurkat cells (PI, flow cytometry); conditions: 2 h, FIG. 11; for T cell death compared to vehicle: CBD 1-20 μM, CBG 5-20 μM
[2] = test system: enzymatically-dissociated human NP; experiment: NP organ culture: cell death by PI and flow cytometry after enzymatic digestion; conditions: for cell death of incubated nasal polyp cells: 72 h, FIG. 10
[3] = test system: human NP tissue; experiment: NP organ culture: tissue weight reduction ex-vivo; conditions: for NP tissue weight reduction: 150 μM
[4] = test system: dispersed nasal polyp cells; experiment: Cell death of dispersed NP cells (PI, flow cytometry), 2 h; assay type: cell-based, human; conditions: 10 μM, 2 h incubation, FIG. 12
Description: DNPCs are prepared from nasal polyps by means of enzymatic digestion. Nasal Polyps are incubated for 2 hours at 37° C. in RPMI 1640 (1 g of tissue per 4 mL) containing 2.0 mg/mL protease, 1.5 mg/mL collagenase, 0.75 mg/mL hyaluronidase, and 0.05 mg/mL DNase. The cell suspension is then filtered through a […] cell strainer to remove any undigested tissue and washed 2 times with washing medium (RPMI 1640 supplemented with 2% FCS, 2 mmol/L glutamine, 100 U/mL penicillin, and […] streptomycin). The cell pellet is resuspended in erythrocyte lysis buffer and washed with washing medium. After washing, DNPCs are suspended in culture medium (RPMI 1640 supplemented with 10% Foetal Calf Serum (FCS), 2 mmol/L glutamine, 100 U/mL penicillin, and […] streptomycin).
The effect of the treatment is evaluated by cell death parameters, using […] (PI) and flow cytometry (FACS) analysis, and enzymatic-linked immunoassay (ELISA).

[5] = test system: human nasal polyp (NP) whole tissues; experiment: NP organ culture: detachment of cells/tissue pieces from nasal polyp (micrographs)
[6] = test system: GM-CSF; experiment: GM-CSF level in SEB-stimulated dispersed nasal polyp cells; assay type: cell-based, human; conditions: CBD 2.5 μM, 5 μM, 10 μM, 30 min before SEB, FIG. 8

C=C(C)[C@@H]1CCC(C)=C[C@H]1c1c(O)cc(CCC)cc1O [CBDV, cannabidivarin]
T cell death ([1]; CBDV 20 μM): induce cell death

CCCCCc1cc(O)c2c(c1)OC(C)(C)[C@@H]1CCC(C)=C[C@@H]21 [THC, tetrahydrocannabinol]
viability of nasal polyp cells (cell death) ([2]; THC 10 μM and 100 μM, 24 h, FIG. 9): comparable effect as CBD at 15 μM and 150 μM, respectively | % cell death ([2]; THC 100 μM, FIG. 9): comparable effect to CBD at a concentration of 150 μM | cell death of incubated nasal polyp cells ([2]; THC alone 10 μM): negligible

C=C(C)[C@@H]1CCC(C)=C[C@H]1c1c(O)cc(CCCCC)cc1O [CBD, cannabidiol]
NP tissue weight reduction ([3]; 3 h incubation, FIG. 4): significant tissue weight reduction; also recorded: significant nasal polyp weight reduction | NP tissue weight reduction ([3]; CBD 15 μM, 1.5 mM, 24 h incubation, FIG. 5): significant human NP tissue weight reduction; also recorded: significant dose-dependent nasal polyp weight reduction | cell death % of dispersed NP cells [4]: significant increase in cell death %; also recorded: significant increase in cell death | percent of dead cells ([2]; CBD 15 μM, 150 μM, 1.5 mM, 24 h, PI-positive, FIG. 7): significantly increased the percent of dead cells | cell death of incubated nasal polyp cells ([2]; CBD alone 150 μM): substantial cell death | T cell death compared to vehicle [1]: significant cell death compared to control | detachment of cells/tissue pieces from the main NP ([5]; CBD 150 μM, 3 h incubation, FIG. 1): starting to detach from the main NP whole tissue; also recorded: starting to detach and disaggregate from the main polyp | cells/tissue pieces breaking off the main polyp ([5]; CBD 150 μM, 72 h incubation, FIG. 3): cells/tissue pieces are breaking off the main polyp into the medium | detachment of cells/tissues from the main NP ([5]; CBD 600 μM, 24 h incubation, FIG. 2): significant detachment of cells/tissues; also recorded: significant detachment of nasal polyp cells/pieces | GM-CSF level [6]: significantly decrease; also recorded: significantly reduces or inhibits

CCCCCc1cc(O)c(C/C=C(\C)CCC=C(C)C)c(O)c1 [CBG, cannabigerol]
size of nasal polyps ([3]; CBG 150 μM, 24 h, FIG. 13A): size of nasal polyps is reduced | cell death % of dispersed NP cells [4]: significant increase in cell death %; also recorded: significant increase in cell death | cell death of NP cells ([2]; CBG 150 μM, FIG. 13C-13D): substantial cell death | T cell death compared to vehicle [1]: significant cell death compared to control
